Reference: paper PMC10844371 (Diabetologia, 2023)
Where two headings read alike, the source gives them in different places.

Key:
[1] = test system: isolated mouse pancreatic islets; type: cell-based; conditions: for glucagon secretion, % of that at 1 mmol/l glucose: mean ± SEM
Procedure: Experiments were conducted as previously described. Islets were incubated in 0.3 ml EC1 or EC2 media (ESM Table 2) supplemented with glucose and other reagents as indicated.
All data are reported, unless otherwise stated, as mean values ± SEM for the indicated number of experiments using islets from multiple mice. For hormone release studies, islets were isolated and pooled from 4–16 mice. These islets were then subdivided into groups of 12–20 size-matched islets. Each unique set of islets counted as an experiment with the experiments repeated on 2–4 days. Similarly, each unique group of human islets was treated as an experiment. […] In the Ca^2+ imaging and granule docking experiment, each cell represents an experiment making sure that cells from multiple donors/animals were used. For the in vivo experiments and the perfused pancreas, each mouse count represents an experiment. For two groupings, a t test was conducted. For multiple comparisons, one-way ANOVA was conducted. All statistical tests were performed using Graphpad Prism (version 9.1.0; graphpad.com).

P/Q-type Ca^2+ channels = assay: [Ca2+]i imaging of depolarisation-evoked Ca2+ entry in alpha cells (Gcg-GCaMP6f islets); type: cell-based, mouse; conditions: 10 pmol/l, 70 mmol/l [K+]o, isradipine 10 μmol/l; n=139 cells from 4 mice
Procedure: For live-cell cytoplasmic free Ca^2+ concentration ([Ca^2+]i) imaging experiments, Gcg-GCaMP6f islets were immobilised to a poly-L-lysine-coated coverslip fixed in a custom-built imaging chamber filled with EC3 (ESM Table 2). [Ca^2+]i was measured in islets from mice expressing GCaMP6f in alpha cells. [Ca^2+]i imaging experiments were then performed using an inverted LSM 510 confocal microscope (Zeiss) controlled with ZEN Black (Zeiss), using a ×40/1.3 oil immersion objective. Time-lapse images were collected every 0.98 s with a frame size of 256×256 pixels, with the bath solution (EC3) perfused at a rate of 0.4 ml/min and heated to 37°C. GCaMP6f was excited by an argon laser (488 nm) and emission was collected at 510 nm.
[Ca^2+]i imaging videos were analysed using the Fiji imaging processing package. The mean fluorescence (F) of each region of interest was normalised to baseline signal (F0) and expressed as F/F0 before exporting into ClampFit (version 10.7; Molecular Devices, CA, USA), where baseline was corrected and AUC was calculated.

[2] = test system: isolated mouse pancreatic islets; assay: Insulin secretion in isolated mouse islets (RIA); type: cell-based
Procedure: (§1) Mouse islets were used acutely, except for studies with PTX, wherein islets were treated overnight with the toxin. Human islets were maintained in culture for up to 48 h in RPMI medium containing 10% (vol./vol.) FCS, 1% (vol./vol.) penicillin/streptomycin and 5 mmol/l glucose. Experiments were conducted as previously described. Islets were incubated in 0.3 ml EC1 or EC2 media (ESM Table 2) supplemented with glucose and other reagents as indicated.
(§2) Insulin and somatostatin were determined by RIA (Millipore and Diasource ImmunoAssays, respectively) as described previously. In these experiments, rates of release are expressed as % of contents unless otherwise indicated.

[3] = test system: isolated mouse pancreatic islets; assay: Somatostatin secretion in isolated mouse islets (RIA); type: cell-based; conditions: 10–10,000 pmol/l, 1 mmol/l glucose
Procedure: as §1, with “indicated. Glucagon was determined by ELISA (Mercodia).” for “indicated.”
as §2

Compound: CC[C@H](C)[C@H](NC(=O)[C@H](Cc1ccccc1)NC(=O)[C@H](CCC(=O)O)NC(=O)[C@H](CCCCN)NC(=O)[C@H](C)NC(=O)[C@H](C)NC(=O)[C@H](CCC(N)=O)NC(=O)CNC(=O)[C@H](CCC(=O)O)NC(=O)[C@H](CC(C)C)NC(=O)[C@H](Cc1ccc(O)cc1)NC(=O)[C@H](CO)NC(=O)[C@H](CO)NC(=O)[C@@H](NC(=O)[C@H](CC(=O)O)NC(=O)[C@H](CO)NC(=O)[C@@H](NC(=O)[C@H](Cc1ccccc1)NC(=O)[C@@H](NC(=O)CNC(=O)[C@@H](N)CCC(=O)O)[C@@H](C)O)[C@@H](C)O)C(C)C)C(=O)N[C@@H](C)C(=O)N[C@@H](Cc1c[nH]c2ccccc12)C(=O)N[C@@H](CC(C)C)C(=O)N[C@H](C(=O)N[C@@H](CCCCN)C(=O)NCC(=O)N[C@@H](CCCNC(=N)N)C(N)=O)C(C)C [GLP-1(9–36)]
- glucagon secretion, % of that at 1 mmol/l glucose ([1]; 10 pmol/l GLP-1(9–36) in the presence of REMD2.59 100 nmol/l): 110±4%
- inhibitory effect on glucagon secretion in Glp1r−/− mouse islets ([1]; 10 pmol/l, Glp1r−/− islets, 1 mmol/l glucose): persisted
- glucagonostatic effect in the presence of exendin(9–39) ([1]; 10 pmol/l, exendin(9–39) 1 μmol/l, 1 mmol/l glucose): retained their glucagonostatic effect
- inhibition of glucagon secretion ([1]; 30 pmol/l, 1 mmol/l glucose): 55%
- change of glucagon secretion compared with 10 mmol/l glucose alone ([1]; 30 pmol/l, 10 mmol/l glucose): −50%
- glucagon secretion, % of that at 1 mmol/l glucose ([1]; 1000 pmol/l GLP-1(9–36) in the presence of REMD2.59 100 nmol/l): 76±5%
- glucagonostatic effect in the presence of the PKA inhibitor 8-Br-Rp-cAMPS ([1]; 8-Br-Rp-cAMPS 10 μmol/l, 1 mmol/l glucose): retains its glucagonostatic capacity
- IC50 ([1]; 48 h): 4 pM
- inhibition of amino acid-induced glucagon secretion ([1]; AA 6 mmol/l (2 mmol/l each glutamine, alanine, arginine), 1 mmol/l glucose): −66%
- reduction of isoprenaline-stimulated glucagon secretion ([1]; in the presence of isoprenaline): 75%
- inhibition of glucagon secretion ([1]; islets cultured overnight without PTX, 1 mmol/l glucose): ~ 50%
- reduction of glucagon secretion evoked by 70 mmol/l [K+]o ([1]; membrane depolarisation, 70 mmol/l extracellular K+): 60%
- inhibitory effect on glucagon secretion after PTX pretreatment ([1]; overnight PTX 100 ng/ml, 1 mmol/l glucose): almost abolished
- expected inhibition of glucagon secretion by circulating levels ([1]; ~30 pmol/l, from the dose–inhibition curves established in vitro): up to 80%
- reduction of depolarisation-induced P/Q-type Ca2+ channel-mediated Ca2+ entry (P/Q-type Ca^2+ channels): 34±4%
- effect on insulin secretion ([2]; 30 pmol/l alone, at 1 or 10 mmol/l glucose): did not increase insulin secretion
- effect on insulin secretion ([2]; 10–10,000 pmol/l, mouse islets, 1 mmol/l glucose): No stimulatory effects
- effect on somatostatin secretion [3]: No stimulatory effects
